According to publication PMC11019746 (ACS Pharmacology & Translational Science, 2024):
Read-outs that look alike come from different tables or passages of the source. Marks after values point to notes of the source that are not given here.

Experiments:
Y4R [1] = molecular target: T1, Y4R (Homo sapiens, UniProt P50391); settings: cited from earlier work
Y4R [2] = molecular target: T1, Y4R; test: Y4R miniGsi recruitment assay (HEK293T-NlucN-mGsi/Y4R-NlucC cells); format: cell-based; set-up: expressed in transfected cells; host or cells: HEK293T; settings: for EC50: HEK293T-NlucN-mGsi/Y4R-NlucC cells; for Emax: read-out: miniGsi recruitment Emax ± SEM; on miniGsi recruitment Emax ± SEM: relative to 1 µM hPP (100%)
Procedure: Furimazine was used as nanoluciferase substrate. The original stock was diluted 1:1000 in L15-HEPES to obtain the feed solution for the assay. Data analysis was performed based on the areas under the curves (time window: 45 min starting with the agonist addition) using GraphPad Prism 5. […] Efficacies Emax correspond to the upper plateaus of the normalized concentration–response curves.

[3] = molecular target: T2, Y4R^SwBac displaying BBVs (Homo sapiens, UniProt P50391); test: Fluorescence anisotropy Y4R competition binding with 16 (Y4R^SwBac BBVs); settings: DPBS, 16 (0.5 nM) as labeled probe, read-out: pKi FA, 137 mM Na+ (converted)
T2 construct: made in house; host or cells: Sf9 insect cells (budded baculovirus particles; MultiBac, with or without the SweetBac module)
Procedure: Two types of MultiBac baculoviruses were used: one type encodes only for hY4R resulting in BBVs displaying Y4R devoid of a mammalian-like glycosylation (herein termed Y4R^nonglyco) and the second type additionally encodes for enzymes providing a mammalian-like glycosylation in Sf9 cells (herein termed Y4R^SwBac; see also Section Molecular Cloning). The obtained viruses were collected by centrifugation at 1600g for 10 min, and the virus titer was determined with an image-based cell-size estimation assay as described elsewhere.[64] […]
FA measurements were carried out using a Synergy NEO multimode plate reader (BioTek, Winooski, VT) and black, half-area, flat-bottom polystyrene NBS (nonbinding surface) 96-well plates (Corning, Corning, NY, product no. 3993). Polarizing excitation (530 ± 15 nm) and dual emission (590 ± 17.5 nm) filters with a dichroic mirror were used, allowing the simultaneous detection of parallelly and perpendicularly polarized fluorescence emission. […]
FA signals were measured for 1.5 h.
Data processing for FA binding assays was assisted by the software Aparecium 2.0.20 developed in house (http://www.gpcr.ut.ee/software.html). Prior to the calculation of FA using eq 1,[19] the measured parallel [I∥(t)] and perpendicular [I⊥(t)] fluorescence intensities were blank-corrected on the basis of the values obtained from wells containing BBVs but no receptor ligand. […]

hY2R [4] = molecular target: T3, hY2R (Homo sapiens, UniProt P49146); settings: cited from earlier work
T3 construct: host or cells: CHO
T3 sequence (P49146 1-381): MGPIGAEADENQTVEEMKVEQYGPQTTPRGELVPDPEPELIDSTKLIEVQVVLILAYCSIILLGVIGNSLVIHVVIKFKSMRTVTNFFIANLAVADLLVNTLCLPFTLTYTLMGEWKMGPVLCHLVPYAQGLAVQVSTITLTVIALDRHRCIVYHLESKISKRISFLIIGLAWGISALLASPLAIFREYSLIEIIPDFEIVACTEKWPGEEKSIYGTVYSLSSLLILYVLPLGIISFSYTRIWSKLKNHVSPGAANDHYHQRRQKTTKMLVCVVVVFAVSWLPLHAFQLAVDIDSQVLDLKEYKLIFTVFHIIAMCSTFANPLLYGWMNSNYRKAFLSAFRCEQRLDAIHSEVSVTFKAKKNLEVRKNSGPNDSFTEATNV

hY5R [5] = molecular target: T4, hY5R (Homo sapiens, UniProt Q15761); settings: cited from earlier work
T4 construct: expressed in transfected cells; host or cells: HEC-1B (human endometrial cancer)
T4 sequence (Q15761 1-445): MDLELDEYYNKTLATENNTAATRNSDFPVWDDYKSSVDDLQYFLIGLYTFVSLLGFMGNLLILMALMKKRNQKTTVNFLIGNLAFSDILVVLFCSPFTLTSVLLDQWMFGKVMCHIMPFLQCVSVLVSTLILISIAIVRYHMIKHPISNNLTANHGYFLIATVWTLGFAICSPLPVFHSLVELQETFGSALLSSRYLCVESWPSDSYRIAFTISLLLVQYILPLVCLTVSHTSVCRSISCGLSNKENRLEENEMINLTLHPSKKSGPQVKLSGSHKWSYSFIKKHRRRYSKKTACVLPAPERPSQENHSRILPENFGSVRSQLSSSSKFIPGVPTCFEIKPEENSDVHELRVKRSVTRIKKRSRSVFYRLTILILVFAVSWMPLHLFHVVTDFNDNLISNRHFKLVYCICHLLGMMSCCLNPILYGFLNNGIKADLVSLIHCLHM

hY4R-Nluc(intraECL2) = hY4R-Nluc(intraECL2) (Homo sapiens, UniProt P50391, INS195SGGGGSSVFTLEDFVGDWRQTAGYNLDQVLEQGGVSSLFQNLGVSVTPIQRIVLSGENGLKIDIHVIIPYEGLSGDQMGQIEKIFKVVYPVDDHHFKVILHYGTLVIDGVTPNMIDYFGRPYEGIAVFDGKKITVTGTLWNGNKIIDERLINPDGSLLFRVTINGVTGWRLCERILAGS); test: NanoBRET Y4R competition binding with 16
Procedure: One the day prior to the experiment, HEK293T-hY4R-Nluc(intraECL2) cells were detached from the culture flask by trypsinization, centrifuged (500g, 5 min), and resuspended in FBS-free L15-HEPES. The cell density was adjusted to 1.14 × 10^6 cells/mL, and the cells were seeded into white 96-well plates (Brand, Wertheim, Germany) (70 μL, 80,000 cells per well) and incubated overnight in a water-saturated atmosphere (only atmospheric CO2). […] The final BSA concentration in the assay was 1.5% (30 μL of a solution containing 5% BSA added to 70 μL of BSA-free medium, as outlined below).
All BRET measurements were performed at a temperature of 25 °C using a TECAN Infinite Lumi plate reader (Tecan, Crailsheim, Germany) equipped with an injection module. Bioluminescence of the nanoluciferase was detected using a 460/35 nm band-pass (460/35 BP) filter. The emission of the fluorescent ligands was detected through a 610 nm long-pass (610 LP) filter. […]
Total binding data from competition binding experiments were plotted as corrected BRET ratio over log(competitor concentration, M) and analyzed by a four-parameter logistic equation (log(inhibitor) vs response–variable slope, GraphPad Prism 5) to obtain the TOP value (upper curve plateau), which was used for data normalization (100% = TOP value, 0% = average of the corrected BRET ratio obtained from unspecific binding). […]

hY4R [6] = molecular target: T5, hY4R (Homo sapiens, UniProt P50391); test: Flow cytometric Y4R competition binding with 16 as labeled ligand; set-up: expressed in transfected cells; host or cells: CHO (co-expressing Gqi5 and mitochondrially targeted aequorin); settings: intact CHO-hY4R-Gqi5-mtAEQ cells
Procedure: The latter was used for injection of the samples of saturation and competition binding experiments. At least three individual experiments were performed in duplicate (kinetic experiments) or triplicate (saturation and competition binding). […] Measurements were stopped after counting of 2000–10000 gated events.
2 to 3 days prior to the experiment, cells were seeded in T75 or T175 culture flasks. On the day of the experiment, cells were detached by trypsinization, suspended in culture medium, and centrifuged. […] HCl (nonlabeled ligands, saturation, and kinetic experiments).

hY1R [7] = molecular target: T6, hY1R (Homo sapiens, UniProt P25929); settings: cited from earlier work
T6 construct: host or cells: SK-N-MC neuroblastoma cells
T6 sequence (P25929 1-384): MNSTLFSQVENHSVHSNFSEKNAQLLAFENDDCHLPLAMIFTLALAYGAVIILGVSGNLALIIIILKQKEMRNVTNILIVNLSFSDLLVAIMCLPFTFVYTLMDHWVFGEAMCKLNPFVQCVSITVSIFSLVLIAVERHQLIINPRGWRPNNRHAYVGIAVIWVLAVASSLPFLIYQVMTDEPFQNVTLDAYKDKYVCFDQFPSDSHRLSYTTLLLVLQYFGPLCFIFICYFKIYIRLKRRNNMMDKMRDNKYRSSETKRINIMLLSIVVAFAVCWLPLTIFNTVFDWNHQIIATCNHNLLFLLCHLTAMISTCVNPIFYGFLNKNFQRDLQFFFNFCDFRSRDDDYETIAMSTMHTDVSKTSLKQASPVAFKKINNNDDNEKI

hY4R [8] = molecular target: T5, hY4R; set-up: expressed in transfected cells; host or cells: CHO (co-expressing Gqi5 and mitochondrially targeted aequorin); settings: cited from earlier work
hY4R [9] = molecular target: T5, hY4R; test: Y4R cAMP CAMYEN assay (HEK293T-CAMYEN-hY4R cells); format: cell-based; set-up: expressed in transfected cells; settings: read-out: CAMYEN cAMP Emax ± SEM; further: relative to 1 µM hPP (100%)
Procedure: The assay was performed with live HEK293T-CAMYEN-hY4R cells applying a reported protocol.[31] Experiments were performed in triplicate. Data processing was performed with GraphPad Prism 9.0 as previously described.[31]

hY2R [10] = molecular target: T3, hY2R; test: Y2R radioligand competition binding, whole CHO-hY2R cells, [3H]propionyl-pNPY; settings: read-out: pKi ± SEM hY2R (converted)
Procedure: (§1) All radioligand binding assays were performed at intact Y receptor expressing cells at 23 ± 2 °C.

hY1R [11] = molecular target: T6, hY1R; test: Y1R radioligand competition binding, whole SK-N-MC cells, [3H]UR-MK299; settings: SK-N-MC neuroblastoma cells, [3H]UR-MK299 c = […]
Procedure: as §1
Competition binding assays at Y1R-expressing SK-N-MC neuroblastoma cells were performed as previously described using [^3H]UR-MK299 as radioligand (concentration: 0.15 nM).[33] […] (logarithmic form in the case of pKi values).

hY4R [12] = molecular target: T5, hY4R; test: Y4R Ca2+ aequorin assay (CHO-hY4R-Gqi5-mtAEQ cells); format: cell-based; set-up: expressed in transfected cells; host or cells: CHO (co-expressing Gqi5 and mitochondrially targeted aequorin); settings: read-out: Ca2+-aequorin Emax ± SEM
Procedure: The assay was performed with live CHO-hY4R-Gqi5-mtAEQ cells as previously described (used buffer: buffer III). Measurements were carried out on a Tecan Infinite Lumi plate reader. Data analysis was performed as reported using GraphPad Prism 5 for the calculation of the area under the curve. […] Efficacies Emax correspond to the upper plateaus of the normalized concentration–response curves.

[13] = Chemical stability in PBS pH 7.4; format: physicochemical; settings: PBS pH 7.4, room temperature, 48 h, 100 μM
Procedure: The chemical stability of the fluorescent ligands 16, 17, and 18 was investigated in PBS (adjusted to pH 7.4) at 22 °C. […] After time periods of 0, 6, and 48 h, an aliquot (25 μL) was withdrawn and added to 25 μL of acetonitrile/0.04% aq. TFA 1:9 v/v to obtain a peptide solution with a concentration of 50 μM. 20 μL of this solution were subjected to analytical RP-HPLC analysis using the same system and conditions as described under Analytical HPLC, but applying a different linear gradient: 0–14 min: A/B 90:10–45:55, 14–15 min: 45:55–5:95, 15–19 min: 5:95 (isocratic). A 1:1 mixture of PBS and acetonitrile/0.04% aq. TFA 1:9 v/v (20 μL) was analyzed to obtain the blank chromatogram.

hY5R [14] = molecular target: T4, hY5R; test: Y5R radioligand competition binding, whole HEC-1B-hY5R cells, [3H]propionyl-pNPY; settings: [3H]propionyl-pNPY c = 5 nM
Procedure: as §1
(logarithmic form in the case of pKi values).

Y4R [15] = molecular target: T1, Y4R; settings: cited from earlier work; remark: listed apart in the source
[16] = molecular target: Y2 receptor (Homo sapiens) (UniProt P49146); settings: cited from earlier work
[17] = molecular target: Y1 receptor (Homo sapiens) (UniProt P25929); settings: cited from earlier work
Y4R [18] = molecular target: T1, Y4R; test: radioligand competition binding (137 mM Na+); settings: cited from earlier work
Y4R [19] = molecular target: T1, Y4R; test: radioligand competition binding; settings: cited from earlier work
[20] = molecular target: Y5 receptor (Homo sapiens) (UniProt Q15761); settings: cited from earlier work
[21] = DPBS, 16 (1 nM) as labeled probe, read-out: pKi flow cytometry, 137 mM Na+ (converted)
[22] = buffer I, 16 (0.5 nM) as labeled probe, read-out: pKi flow cytometry, Na+ free (converted)
[23] = read-out: pKi ± SEM hY1R (converted)
[24] = read-out: pKi ± SEM hY5R (converted)

In the case of “5-TAMRA-[K18,Nle17,30]hPP (2) (from UniProt P01298)”, the Kd (Y4R [1]) is given as 26 nM.
`CC(C)C[C@H](NC(=O)[C@@H]1CCCNC(N)=NC(=O)NCCCCNC(=O)CCC(=O)N[C@@H](CCCNC(=N)N)C(=O)N[C@@H](Cc2c[nH]c3ccccc23)C(=O)N1)C(=O)N[C@@H](CCCNC(=N)N)C(=O)N[C@@H](Cc1ccc(O)cc1)C(N)=O` [Compound 5] showed an EC50 (Y4R [2]; read-out: miniGsi recruitment EC50 (converted)) of 1.8 nM, an Emax (Y4R [2]) of 61 ± 2% and a Ki [3] of 0.55 nM. The Ki (hY2R [4]) was > 10000 nM, the “pKi hY2R” value (hY2R [4]) was < 5 and the Ki (hY5R [5]) was > 3000 nM. For the same compound, the “pKi hY5R” value (hY5R [5]) was < 5.5, the Ki (hY4R-Nluc(intraECL2)) was 1.29 nM and the Ki (hY4R [6]; [21]) was 0.708 nM. For the same compound, the Ki (hY4R [6]; [22]) was 0.324 nM, the Ki (hY1R [7]) was > 10000 nM and the “pKi hY1R” value (hY1R [7]) was < 5.
For `CCC(=O)NCCCC(=O)N[C@@H]1CC(=O)N[C@@H](CCCNC(=N)N)C(=O)N[C@@H](Cc2ccc(O)cc2)C(=O)N[C@H](C(=O)N[C@@H](CC(C)C)C(=O)N[C@@H](CCCNC(=N)N)C(=O)N[C@@H](Cc2ccc(O)cc2)C(N)=O)CCCNC(N)=NC(=O)NCCCCNC1=O` [Compound 7], the “pKi literature, 137 mM Na+” value (hY4R [8]) is given as 9.79 ^e, the Ki [3] is given as 0.398 nM and the Ki (hY4R-Nluc(intraECL2)) is given as 0.851 nM. It also gave a Ki (hY4R [6]; [21]) of 1.58 nM and a Ki (hY4R [6]; [22]) of 0.245 nM.
For `CC(C)C[C@H](NC(=O)[C@@H]1CCCNC(N)=NC(=O)NCCCCNC(=O)[C@H](NC(=O)CCCNC(=O)CCC#Cc2ccc3c(c2)C(C)(C)C2=C4C=C5C6=[N+](CCC5OC4CCN23)c2ccc(S(=O)(=O)[O-])cc2C6(C)C)CC(=O)N[C@@H](CCCNC(=N)N)C(=O)N[C@@H](Cc2ccc(O)cc2)C(=O)N1)C(=O)N[C@@H](CCCNC(=N)N)C(=O)N[C@@H](Cc1ccc(O)cc1)C(N)=O` (some centres unmarked) [Compound 16], the Emax (Y4R [2]) was 72 ± 9%, the Emax (hY4R [9]) was 93 ± 5% and the Ki (hY2R [10]) was > 1000 nM. For the same compound, the Ki (hY1R [11]; read-out: Ki hY1R (converted)) was 120 nM, the Ki (hY1R [11]; [23]) was 123 nM and the Emax (hY4R [12]) was 66 ± 2%. The chemical stability [13] was “excellent stability”, the Ki (hY5R [14]; read-out: Ki hY5R (converted)) was 480 nM and the Ki (hY5R [14]; [24]) was 479 nM.
`CC(C)C[C@H](NC(=O)[C@@H]1CCCNC(N)=NC(=O)NCCCCNC(=O)[C@H](NC(=O)CCCNC(=O)CCCCCN2/C(=C/C=C/C=C/C3=[N+](CCCCS(=O)(=O)[O-])c4ccccc4C3(C)C)C(C)(C)c3cc(S(=O)(=O)O)ccc32)CC(=O)N[C@@H](CCCNC(=N)N)C(=O)N[C@@H](Cc2ccc(O)cc2)C(=O)N1)C(=O)N[C@@H](CCCNC(=N)N)C(=O)N[C@@H](Cc1ccc(O)cc1)C(N)=O` [Compound 17] showed an EC50 (Y4R [2]; read-out: miniGsi recruitment pEC50 ± SEM (converted)) of 85.1 nM, an Emax (Y4R [2]) of 70 ± 9% and an Emax (hY4R [9]) of 90 ± 3%. For the same compound, the Ki (hY2R [10]) was > 1000 nM, the Ki (hY1R [11]; [23]) was > 1000 nM and the Emax (hY4R [12]) was 71 ± 3%. The chemical stability [13] was “excellent stability” and the Ki (hY5R [14]; [24]) was > 1000 nM.
For Sulfo-Cy5-[K4]hPP (from UniProt P01298), the Kd (Y4R [15]) is listed as 5.6 nM.
In the case of hPP (from UniProt P01298), the Ki [16] is listed as > 3000 nM, the Ki [17] is listed as 440 nM and the Ki (Y4R [18]) is listed as 0.079 nM. For the same compound, the Ki (Y4R [19]) was 0.1 nM and the Ki [20] was 17 nM.
